Assay [1] deals with T1, human liver Glucokinase (GK) (Homo sapiens, UniProt P35557).
T1 construct: His6; made in house; host or cells: Escherichia coli
T1 sequence (P35557 1-466 isoform P35557-2): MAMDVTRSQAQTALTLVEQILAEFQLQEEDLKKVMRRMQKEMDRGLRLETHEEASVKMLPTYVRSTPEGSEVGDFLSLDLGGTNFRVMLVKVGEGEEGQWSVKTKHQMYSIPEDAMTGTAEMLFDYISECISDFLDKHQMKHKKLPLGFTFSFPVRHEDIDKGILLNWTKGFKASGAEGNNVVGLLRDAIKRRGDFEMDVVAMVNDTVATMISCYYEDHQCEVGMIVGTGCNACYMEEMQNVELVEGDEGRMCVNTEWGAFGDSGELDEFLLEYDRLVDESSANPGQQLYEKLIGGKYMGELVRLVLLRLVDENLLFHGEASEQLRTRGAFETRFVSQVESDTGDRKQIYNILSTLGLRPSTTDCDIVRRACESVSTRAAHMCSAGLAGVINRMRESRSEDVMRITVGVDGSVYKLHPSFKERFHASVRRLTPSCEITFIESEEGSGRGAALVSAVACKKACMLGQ
The assay can be described thus: Glucokinase enzyme assay, liver GK. It counts as biochemical. Conditions: for EC50: concentration that produces 50% activation above vehicle control; for activation at 50 µM: increase in GK activity above vehicle control, compound 50 μM, 12 mM glucose; for EC100%: concentration that produces 100% activation above vehicle control. An excerpt:
(§1) An enzymatic Glucokinase (GK) assay using purified recombinant human liver/pancreas enzyme was used to evaluate the effects of potential small molecule modulators.
(§2) In this assay, GK catalyzes glucose phosphorylation in the presence of ATP. The product of this reaction, glucose-6-phosphate, was then oxidized by an excess of glucose-6-phosphate dehydrogenase to produce gluconate-6-phosphate with concomitant reduction of nicotinamide adenine dinucleotide (NAD). […] Human GK (Liver/Pancreas) was expressed in Escherichia coli as a (His) 6-tagged fusion protein and was purified by metal chelate affinity chromatography. The assay was performed in a final incubation volume of 80 μl in a 96-well clear low UV absorption plates. The incubation mixture consisted of 25 mM HEPES, 2 mM MgSO4, 1 mM dithiothreotol (DTT), 1 mg/mL bovine serum albumin (BSA), 1 mM ATP, 1 mM NAD, and 12 mM glucose, 10 units per mL glucose-6-phosphate dehydrogenase, and +/−300 ng per mL GK. For determination of the affinity (Km) and Vmax, different concentrations of glucose ranging from 0.5 mM to 40 mM were used in the assay; see Grimsby, J., Sarabu, R.; Grippo, J. F.; et. al. Science 2003, 301, 370-373. Production of reduced NAD (Nicotinamide Adenine Dinucleotide) was measured as changes in absorption at 340 nm in 96-well plate reader (Envision model #2101 Multilabel Plate reader). % Activation @ 50 μM was calculated as the percentage increase in GK activity above the vehicle control with the effective concentration of the compound being 50 μM. EC50% (μM) was calculated as the effective concentration of the compound that produces 50% activation above the vehicle control, and EC100% (μM) was calculated as the effective concentration of the compound that produces 100% activation above the vehicle control.

Assay [2] deals with T2, human pancreas Glucokinase (GK) (Homo sapiens, UniProt P35557).
T2 construct: His6; made in house; host or cells: Escherichia coli
T2 sequence (P35557 1-465): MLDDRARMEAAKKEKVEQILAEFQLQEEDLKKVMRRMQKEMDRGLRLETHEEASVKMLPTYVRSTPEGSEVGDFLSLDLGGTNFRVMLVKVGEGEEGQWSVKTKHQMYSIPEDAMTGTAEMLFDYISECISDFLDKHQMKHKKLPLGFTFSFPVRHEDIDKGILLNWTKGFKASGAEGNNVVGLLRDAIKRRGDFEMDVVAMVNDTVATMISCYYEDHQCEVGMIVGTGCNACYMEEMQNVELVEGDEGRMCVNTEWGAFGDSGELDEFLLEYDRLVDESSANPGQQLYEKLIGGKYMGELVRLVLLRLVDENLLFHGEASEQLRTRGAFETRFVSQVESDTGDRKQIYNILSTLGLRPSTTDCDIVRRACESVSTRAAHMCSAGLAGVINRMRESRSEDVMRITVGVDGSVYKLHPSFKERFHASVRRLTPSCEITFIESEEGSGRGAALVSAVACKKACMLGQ
Nature of the assay: Glucokinase enzyme assay, pancreas GK. It counts as biochemical. Conditions: for EC50: concentration that produces 50% activation above vehicle control; for EC100%: concentration that produces 100% activation above vehicle control; for activation at 50 µM: increase in GK activity above vehicle control, compound 50 μM, 12 mM glucose.
Description: as §1
as §2, with “Production of reduced NAD (Nicotinamide Adenine Dinucleotide) was measured as changes in absorption at 340 nm in 96-well plate reader (Envision model #2101 Multilabel Plate reader). % Activation @ 50 μM was calculated as the percentage increase in GK activity above the vehicle control with the effective concentration of the compound being 50 μM.” left out

The structures appear in SMILES notation.

Results on seven compounds are retold here after patent publication US8796313B2, “Substituted dihydroisoindolones as allosteric modulators of glucokinase” (Janssen Pharmaceutica N.V., priority 2005, dated 2014).

In assay [1], `O=C(CCC1c2ccccc2C(=O)N1Cc1ccccc1)Nc1nccs1` (centres unmarked) [Compound 1, 3-(2-Benzyl-3-oxo-2,3-dihydro-1H-isoindol-1-yl)-N-thiazol-2-yl-propionamide] came in with an EC50 of 15 µM and an activation at 50 µM of 46%.

`COC(=O)c1ccc(NC(=O)CCC2c3ccccc3C(=O)N2Cc2ccccc2)nc1` (centres unmarked) [Compound 2, 6-[3-(2-Benzyl-3-oxo-2,3-dihydro-1H-isoindol-1-yl)-propionylamino]-nicotinic acid methyl ester]: in assay [1], the EC50 is 1.29 µM and the “EC100%” value turned out to be 8.39 µM.

With `O=C(CCC1c2ccccc2C(=O)N1Cc1ccccc1)Nc1ccccn1` (centres unmarked) [Compound 3, 3-(2-Benzyl-3-oxo-2,3-dihydro-1H-isoindol-1-yl)-N-pyridin-2-yl-propionamide], in assay [1], the EC50 was 2.52 µM and the “EC100%” value was found to be 8.78 µM.

For the compound `O=C(NCCC1c2ccccc2C(=O)N1Cc1ccccc1)Nc1nccs1` (centres unmarked) [Compound 4, 1-[2-(2-Benzyl-3-oxo-2,3-dihydro-1H-isoindol-1-yl)-ethyl]-3-thiazol-2-yl-urea], in assay [1], the activation at 50 µM was found to be 15%.

`O=C(CCC1c2ccccc2C(=O)N1Cc1ccccc1)Nc1ccc(C(=O)O)cn1` (centres unmarked) [Compound 5, 6-[3-(2-Benzyl-3-oxo-2,3-dihydro-1H-isoindol-1-yl)-propionylamino]-nicotinic acid]: in assay [1], the EC50 is 1.9 µM, the “EC100%” value amounted to 8 µM and the activation at 50 µM was 138%. In assay [2], the EC50 came out at 2.9 µM, the “EC100%” value is 18 µM and the activation at 50 µM came out at 306%.

In assay [2], `COC(=O)c1ccc(NC(=O)CC[C@@H]2c3c(F)cccc3C(=O)N2Cc2ccc(F)cc2)nc1` [Compound 50, (R)-6-{3-[7-Fluoro-2-(4-fluoro-benzyl)-3-oxo-2,3-dihydro-1H-isoindol-1-yl]-propionylamino}-nicotinic acid methyl ester] registered an activation at 50 µM of 38.6%.

Take `COC(=O)c1ccc(NC(=O)CC[C@H]2c3c(F)cccc3C(=O)N2Cc2ccc(F)cc2)nc1` [Compound 51, (S)-6-{3-[7-Fluoro-2-(4-fluoro-benzyl)-3-oxo-2,3-dihydro-1H-isoindol-1-yl]-propionylamino}-nicotinic acid methyl ester]: in assay [2], the EC50 amounted to 0.0089 µM, the “EC100%” value is 0.082 µM and the activation at 50 µM is 223%.
